Test results as given in article PMC9268448, “Synthesis of 4,5-Dihydro-1H-[1,2]dithiolo[3,4-c]quinoline-1-thione Derivatives and Their Application as Protein Kinase Inhibitors” (Molecules, 2022).

What was measured:
[1] = target: T1, NPM1-ALK (Homo sapiens, UniProt Q9UM73); assay: Kinase inhibition ELISA, NPM1-ALK; format: biochemical; conditions: for inhibition at 10 µM: 10 μM test compound, 150 μM ATP; for IC50: ten concentration points
T1 construct: NPM1 (nucleophosmin, P06748) fusion partner
T1 sequence (Q9UM73 whole entry, looked up, the tested form may be a part): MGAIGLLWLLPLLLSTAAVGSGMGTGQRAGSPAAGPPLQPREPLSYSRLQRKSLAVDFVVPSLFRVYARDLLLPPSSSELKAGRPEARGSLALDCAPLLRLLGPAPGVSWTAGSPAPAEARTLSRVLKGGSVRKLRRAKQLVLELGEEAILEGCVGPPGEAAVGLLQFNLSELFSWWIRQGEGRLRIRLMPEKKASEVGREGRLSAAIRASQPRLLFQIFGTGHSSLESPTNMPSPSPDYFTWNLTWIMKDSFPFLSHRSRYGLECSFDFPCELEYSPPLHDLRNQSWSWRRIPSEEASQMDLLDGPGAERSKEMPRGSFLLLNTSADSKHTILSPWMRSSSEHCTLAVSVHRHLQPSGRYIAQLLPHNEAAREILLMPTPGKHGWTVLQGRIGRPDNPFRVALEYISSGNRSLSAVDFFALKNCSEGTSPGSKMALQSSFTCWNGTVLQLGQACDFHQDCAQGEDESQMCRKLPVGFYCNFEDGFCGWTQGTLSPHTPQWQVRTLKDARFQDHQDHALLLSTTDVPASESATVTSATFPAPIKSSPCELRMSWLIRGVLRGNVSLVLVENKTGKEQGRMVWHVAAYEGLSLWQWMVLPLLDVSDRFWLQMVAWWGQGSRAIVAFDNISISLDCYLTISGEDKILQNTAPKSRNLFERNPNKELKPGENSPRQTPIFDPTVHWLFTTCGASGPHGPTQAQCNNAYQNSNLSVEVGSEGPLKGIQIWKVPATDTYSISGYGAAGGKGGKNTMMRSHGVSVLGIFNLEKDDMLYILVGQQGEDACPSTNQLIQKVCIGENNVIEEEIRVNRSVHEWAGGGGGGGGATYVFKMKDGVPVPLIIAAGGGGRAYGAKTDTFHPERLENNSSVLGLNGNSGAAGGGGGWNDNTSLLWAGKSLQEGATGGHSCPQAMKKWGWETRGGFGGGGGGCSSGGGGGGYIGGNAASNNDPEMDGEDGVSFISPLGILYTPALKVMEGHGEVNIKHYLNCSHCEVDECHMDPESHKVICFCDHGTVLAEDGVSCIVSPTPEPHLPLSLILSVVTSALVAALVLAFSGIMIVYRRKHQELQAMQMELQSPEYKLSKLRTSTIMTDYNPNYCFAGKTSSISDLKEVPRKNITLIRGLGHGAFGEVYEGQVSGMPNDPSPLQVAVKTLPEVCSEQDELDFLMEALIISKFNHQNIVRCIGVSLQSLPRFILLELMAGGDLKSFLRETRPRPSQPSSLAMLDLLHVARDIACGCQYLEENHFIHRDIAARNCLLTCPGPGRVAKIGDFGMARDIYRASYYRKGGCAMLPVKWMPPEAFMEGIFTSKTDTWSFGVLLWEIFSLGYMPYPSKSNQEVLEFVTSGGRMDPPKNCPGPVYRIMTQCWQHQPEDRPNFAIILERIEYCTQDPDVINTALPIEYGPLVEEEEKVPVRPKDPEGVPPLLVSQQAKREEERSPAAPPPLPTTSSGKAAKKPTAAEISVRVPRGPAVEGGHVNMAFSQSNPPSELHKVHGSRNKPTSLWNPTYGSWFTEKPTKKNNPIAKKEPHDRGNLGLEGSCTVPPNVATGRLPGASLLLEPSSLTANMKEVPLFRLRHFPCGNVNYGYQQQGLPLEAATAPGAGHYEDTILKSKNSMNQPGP
Experimental: (§1) Study of inhibitory activity. […] The enzymatic reaction was stopped with a buffer containing 20 mM HEPES (Sigma, H4034), pH 7.5, and 150 mM EDTA (Sigma, E5513). […] Incubation was carried out for 1 h at room temperature. […] After completion of each incubation step (60 min at room temperature (~20 °C) and continuous stirring), the plates were washed three times from unbound antibody molecules with a PBS solution with Tween-20 and 100 μL of substrate (3.3′,5.5′-tetramethylbenzidine (TMB) dihydrochloride, Sigma, T8768) prepared according to the manufacturer’s instructions. Before measuring the optical density, the reaction was stopped using 0.5 M Н2SO4. The optical density of the solution was determined at λ = 450 nm using a tablet spectrophotometer (TECAN Safire). The data obtained were processed and imported into the HTSCalc program.
(§2) The data were analyzed using GraphPad Prism software (v. 3.1).

[2] = target: ALK (Homo sapiens, UniProt Q9UM73); assay: Kinase inhibition ELISA, ALK; format: biochemical; conditions: 10 μM test compound, 150 μM ATP
Chain of ALK (Q9UM73 19-1620): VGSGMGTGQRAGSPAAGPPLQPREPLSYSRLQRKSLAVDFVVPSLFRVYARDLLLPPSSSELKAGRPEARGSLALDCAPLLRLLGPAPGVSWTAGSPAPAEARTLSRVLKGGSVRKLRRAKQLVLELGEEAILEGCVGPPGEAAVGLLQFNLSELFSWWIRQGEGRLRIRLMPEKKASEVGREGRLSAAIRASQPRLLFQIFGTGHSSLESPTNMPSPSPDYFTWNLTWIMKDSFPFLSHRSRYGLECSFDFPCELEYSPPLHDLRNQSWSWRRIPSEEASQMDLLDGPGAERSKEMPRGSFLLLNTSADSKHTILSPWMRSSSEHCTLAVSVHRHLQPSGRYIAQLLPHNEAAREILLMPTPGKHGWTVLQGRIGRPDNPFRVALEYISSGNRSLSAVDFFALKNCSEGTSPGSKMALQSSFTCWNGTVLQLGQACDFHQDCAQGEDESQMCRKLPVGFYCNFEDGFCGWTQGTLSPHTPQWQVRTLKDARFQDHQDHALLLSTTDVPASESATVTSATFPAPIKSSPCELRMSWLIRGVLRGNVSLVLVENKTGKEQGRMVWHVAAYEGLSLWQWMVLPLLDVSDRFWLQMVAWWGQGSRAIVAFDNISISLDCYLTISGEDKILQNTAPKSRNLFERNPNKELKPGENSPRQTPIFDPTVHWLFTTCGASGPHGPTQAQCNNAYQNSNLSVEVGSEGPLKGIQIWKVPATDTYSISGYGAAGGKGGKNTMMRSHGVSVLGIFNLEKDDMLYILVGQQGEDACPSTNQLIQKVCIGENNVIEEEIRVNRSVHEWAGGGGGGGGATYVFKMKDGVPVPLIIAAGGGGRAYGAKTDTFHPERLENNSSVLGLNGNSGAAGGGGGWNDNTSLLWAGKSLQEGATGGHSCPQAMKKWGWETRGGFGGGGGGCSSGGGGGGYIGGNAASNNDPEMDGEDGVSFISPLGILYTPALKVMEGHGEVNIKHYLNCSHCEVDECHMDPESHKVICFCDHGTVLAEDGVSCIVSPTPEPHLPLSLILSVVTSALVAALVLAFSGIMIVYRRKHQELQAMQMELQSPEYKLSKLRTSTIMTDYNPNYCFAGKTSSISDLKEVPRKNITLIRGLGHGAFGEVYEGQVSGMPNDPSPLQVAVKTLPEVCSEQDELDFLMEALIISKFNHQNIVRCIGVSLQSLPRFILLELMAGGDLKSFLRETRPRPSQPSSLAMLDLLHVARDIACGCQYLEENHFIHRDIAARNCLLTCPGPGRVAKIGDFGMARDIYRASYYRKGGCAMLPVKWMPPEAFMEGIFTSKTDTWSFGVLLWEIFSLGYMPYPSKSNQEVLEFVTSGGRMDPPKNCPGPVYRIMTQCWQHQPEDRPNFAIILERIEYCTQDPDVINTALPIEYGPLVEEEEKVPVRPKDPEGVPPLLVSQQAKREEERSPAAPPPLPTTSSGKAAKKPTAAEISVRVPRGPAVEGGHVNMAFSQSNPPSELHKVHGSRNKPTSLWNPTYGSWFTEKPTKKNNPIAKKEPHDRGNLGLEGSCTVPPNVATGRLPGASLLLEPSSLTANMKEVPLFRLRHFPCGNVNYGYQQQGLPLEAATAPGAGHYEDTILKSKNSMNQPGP
Experimental: (§3) Study of inhibitory activity. The kinase activity was determined by enzyme-linked immunosorbent assay (ELISA) in polypropylene plates (Costar, 3363) in reaction buffer (20 mM HEPES, pH 7.5, 15 mM MgCl2, 2 mM DTT, 0.2 mM Na3VO4, 0.005% Triton X-100) for 60 min at 30 °C with vigorous stirring. The final concentration of the reaction components: 0.05 μg mL^–1 of the corresponding kinase, 5 nM Histon H3 biotinylated substrate (1–21) (Anaspec, 61702), 150 μM ATP (Sigma, A6419), 10 μM test compound, 5% DMSO. The enzymatic reaction was stopped with a buffer containing 20 mM HEPES (Sigma, H4034), pH 7.5, and 150 mM EDTA (Sigma, E5513). Further, to detect the phosphorylated substrate, the reaction mixture was transferred to pre-prepared plates (Nunc, 468667) coated with neutravidin (1 ng per well; Pierce, 31000) and treated with bovine serum albumin (BSA) to block non-specific binding sites. Incubation was carried out for 1 h at room temperature. After washing the plates three times with phosphate buffer saline (PBS, pH 7.4) with Tween-20, they were incubated sequentially with anti-phospho-Histon H3 antibodies (0.3 ng μL^–1; Millipore, 04-746) and with specific antibodies conjugated with an enzyme-label (peroxidase) Anti-rabbit IgG, HRP-linked Antibody (titer 1/5000; Cell Signaling, 7074). After completion of each incubation step (60 min at room temperature (~20 °C) and continuous stirring), the plates were washed three times from unbound antibody molecules with a PBS solution with Tween-20 and 100 μL of substrate (3.3′,5.5′-tetramethylbenzidine (TMB) dihydrochloride, Sigma, T8768) prepared according to the manufacturer’s instructions. Before measuring the optical density, the reaction was stopped using 0.5 M Н2SO4. The optical density of the solution was determined at λ = 450 nm using a tablet spectrophotometer (TECAN Safire). The data obtained were processed and imported into the HTSCalc program.

[3] = target: EGFR[L858R][T790] (Homo sapiens, UniProt P00533, L858R/T790M); assay: Kinase inhibition ELISA, EGFR[L858R][T790]; format: biochemical; conditions: 10 μM test compound, 150 μM ATP
Experimental: as §3

[4] = target: cRAF[Y340D][Y341D] (Homo sapiens, UniProt P04049, Y340D/Y341D); assay: Kinase inhibition ELISA, cRAF[Y340D][Y341D]; format: biochemical; conditions: for inhibition at 10 µM: 10 μM test compound, 150 μM ATP; for IC50: ten concentration points
Chain of cRAF[Y340D][Y341D] (P04049 whole entry Y340D/Y341D): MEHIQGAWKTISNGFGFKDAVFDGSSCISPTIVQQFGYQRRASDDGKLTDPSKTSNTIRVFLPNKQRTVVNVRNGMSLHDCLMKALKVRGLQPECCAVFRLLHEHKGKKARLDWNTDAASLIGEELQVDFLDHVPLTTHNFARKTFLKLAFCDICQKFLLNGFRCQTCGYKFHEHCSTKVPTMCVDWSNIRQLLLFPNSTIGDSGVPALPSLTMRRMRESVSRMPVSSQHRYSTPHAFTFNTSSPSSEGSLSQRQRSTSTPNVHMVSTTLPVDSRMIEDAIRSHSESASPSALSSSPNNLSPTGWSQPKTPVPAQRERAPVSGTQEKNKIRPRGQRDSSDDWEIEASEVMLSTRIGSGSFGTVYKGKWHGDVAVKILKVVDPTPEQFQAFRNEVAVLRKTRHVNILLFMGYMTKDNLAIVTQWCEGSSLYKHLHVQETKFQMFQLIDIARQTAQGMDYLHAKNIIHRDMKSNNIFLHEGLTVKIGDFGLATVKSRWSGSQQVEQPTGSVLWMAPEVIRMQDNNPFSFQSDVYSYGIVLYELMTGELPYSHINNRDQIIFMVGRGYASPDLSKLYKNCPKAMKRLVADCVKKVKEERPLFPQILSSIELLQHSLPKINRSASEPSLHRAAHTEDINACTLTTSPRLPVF
Experimental: as §1, §2

[5] = target: JAK2 (Homo sapiens, UniProt O60674); assay: Kinase inhibition ELISA, JAK2; format: biochemical; conditions: 10 μM test compound, 150 μM ATP
Chain of JAK2 (O60674 whole entry): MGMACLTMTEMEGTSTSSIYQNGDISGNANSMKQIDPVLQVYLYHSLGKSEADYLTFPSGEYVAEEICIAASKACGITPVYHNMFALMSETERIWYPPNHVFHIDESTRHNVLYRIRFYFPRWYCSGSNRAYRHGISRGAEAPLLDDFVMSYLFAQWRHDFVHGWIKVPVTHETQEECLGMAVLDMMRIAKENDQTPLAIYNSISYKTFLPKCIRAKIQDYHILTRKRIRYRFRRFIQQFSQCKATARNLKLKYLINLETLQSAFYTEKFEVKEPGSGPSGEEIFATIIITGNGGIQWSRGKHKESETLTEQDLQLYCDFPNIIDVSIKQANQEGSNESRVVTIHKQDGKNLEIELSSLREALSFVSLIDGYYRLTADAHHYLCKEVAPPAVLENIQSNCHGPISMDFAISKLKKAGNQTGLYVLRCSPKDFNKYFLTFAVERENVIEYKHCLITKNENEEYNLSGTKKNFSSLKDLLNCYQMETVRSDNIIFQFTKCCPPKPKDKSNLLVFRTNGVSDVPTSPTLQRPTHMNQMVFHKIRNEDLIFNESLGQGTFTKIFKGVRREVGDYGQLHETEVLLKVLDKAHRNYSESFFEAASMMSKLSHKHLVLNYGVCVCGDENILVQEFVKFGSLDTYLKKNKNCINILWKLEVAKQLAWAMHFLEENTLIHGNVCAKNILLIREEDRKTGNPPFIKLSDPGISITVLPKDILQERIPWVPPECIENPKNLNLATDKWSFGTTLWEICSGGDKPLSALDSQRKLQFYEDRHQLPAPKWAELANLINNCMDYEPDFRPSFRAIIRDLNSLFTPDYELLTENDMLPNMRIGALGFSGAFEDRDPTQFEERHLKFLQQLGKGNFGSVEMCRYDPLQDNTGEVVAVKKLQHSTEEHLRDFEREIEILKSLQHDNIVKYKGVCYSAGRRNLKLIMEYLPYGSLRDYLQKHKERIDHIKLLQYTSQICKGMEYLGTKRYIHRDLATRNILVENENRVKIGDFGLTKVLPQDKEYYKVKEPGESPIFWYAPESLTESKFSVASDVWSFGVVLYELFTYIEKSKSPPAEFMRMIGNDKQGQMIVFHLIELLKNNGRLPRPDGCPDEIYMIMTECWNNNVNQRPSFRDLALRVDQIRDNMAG
Experimental: as §3

[6] = target: T2, JAK3 (Homo sapiens, UniProt P52333); assay: Kinase inhibition ELISA, JAK3; format: biochemical; conditions: for inhibition at 10 µM: 10 μM test compound, 150 μM ATP; for IC50: ten concentration points
T2 sequence (P52333 1-1124): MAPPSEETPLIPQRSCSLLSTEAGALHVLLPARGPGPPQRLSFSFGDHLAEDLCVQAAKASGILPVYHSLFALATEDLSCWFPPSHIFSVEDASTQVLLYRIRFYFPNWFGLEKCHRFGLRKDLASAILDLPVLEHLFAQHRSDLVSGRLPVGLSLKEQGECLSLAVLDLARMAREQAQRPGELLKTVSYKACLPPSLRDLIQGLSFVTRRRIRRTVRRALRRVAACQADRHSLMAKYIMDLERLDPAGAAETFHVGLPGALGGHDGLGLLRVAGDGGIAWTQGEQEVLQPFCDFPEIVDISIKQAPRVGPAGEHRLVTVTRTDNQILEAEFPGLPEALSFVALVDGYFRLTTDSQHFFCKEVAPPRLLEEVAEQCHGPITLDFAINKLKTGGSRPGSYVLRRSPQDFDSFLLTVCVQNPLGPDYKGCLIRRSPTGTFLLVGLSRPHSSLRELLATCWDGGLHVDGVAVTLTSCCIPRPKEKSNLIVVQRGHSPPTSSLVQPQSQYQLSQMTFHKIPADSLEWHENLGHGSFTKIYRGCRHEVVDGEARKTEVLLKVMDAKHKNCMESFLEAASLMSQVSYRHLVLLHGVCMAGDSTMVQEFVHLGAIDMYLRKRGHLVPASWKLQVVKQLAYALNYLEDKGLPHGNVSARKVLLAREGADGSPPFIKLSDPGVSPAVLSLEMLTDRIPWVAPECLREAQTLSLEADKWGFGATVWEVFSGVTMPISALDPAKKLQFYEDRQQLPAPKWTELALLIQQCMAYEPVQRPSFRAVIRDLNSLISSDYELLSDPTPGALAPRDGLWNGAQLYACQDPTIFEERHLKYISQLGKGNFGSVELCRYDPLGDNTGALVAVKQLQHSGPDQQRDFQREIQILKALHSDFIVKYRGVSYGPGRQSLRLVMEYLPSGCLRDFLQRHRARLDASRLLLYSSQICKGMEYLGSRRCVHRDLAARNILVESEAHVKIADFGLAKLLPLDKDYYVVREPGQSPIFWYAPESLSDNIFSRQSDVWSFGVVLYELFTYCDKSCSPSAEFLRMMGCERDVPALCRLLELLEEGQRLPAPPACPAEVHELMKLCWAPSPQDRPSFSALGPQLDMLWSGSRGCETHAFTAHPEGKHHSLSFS
Experimental: as §3
(§4) For compounds 2a–c,q, the IC50 value (μmol L^–1) was calculated from ten concentration points (in triplicate dilution) obtained twice. The data were analyzed using GraphPad Prism software (v. 3.1).

[7] = tested on: protein kinases NPM1-ALK, ALK, EGFR[L858R][T790], cRAF[Y340D][Y341D], JAK2, and JAK3; assay: Kinase inhibition ELISA, summary over the studied protein kinases; format: biochemical, human; conditions: primary screening, 10 μM test compound
Experimental: Study of inhibitory activity. The kinase activity was determined by enzyme-linked immunosorbent assay (ELISA) in polypropylene plates (Costar, 3363) in reaction buffer (20 mM HEPES, pH 7.5, 15 mM MgCl2, 2 mM DTT, 0.2 mM Na3VO4, 0.005% Triton X-100) for 60 min at 30 °C with vigorous stirring. The final concentration of the reaction components: 0.05 μg mL^–1 of the corresponding kinase, 5 nM Histon H3 biotinylated substrate (1–21) (Anaspec, 61702), 150 μM ATP (Sigma, A6419), 10 μM test compound, 5% DMSO. The enzymatic reaction was stopped with a buffer containing 20 mM HEPES (Sigma, H4034), pH 7.5, and 150 mM EDTA (Sigma, E5513). Further, to detect the phosphorylated substrate, the reaction mixture was transferred to pre-prepared plates (Nunc, 468667) coated with neutravidin (1 ng per well; Pierce, 31000) and treated with bovine serum albumin (BSA) to block non-specific binding sites. Incubation was carried out for 1 h at room temperature. […] The optical density of the solution was determined at λ = 450 nm using a tablet spectrophotometer (TECAN Safire). […]
as §4

SMILES | inhibition at 10 µM [1] [%] | inhibition at 10 µM [2] [%] | inhibition at 10 µM [3] [%] | inhibition at 10 µM [4] [%] | inhibition at 10 µM [5] [%] | inhibition at 10 µM [6] [%] | melting point [°C] | IC50 [1] [nM] | IC50 [6] [nM] | IC50 [4] [nM] | inhibitory activity against the studied protein kinases (in words) [7]
COc1ccc2c(c1)-c1c(ssc1=S)C(C)(C)N2C(=O)c1cccs1 [2i, 8-Methoxy-4,4-dimethyl-5-(2-thienylcarbonyl)-4,5-dihydro-1H-[1,2]dithiolo[3,4-c]quinoline-1-thione] | 77 | 81 | 24 | 76 | 64 | 89 | 158 to 159 |  |  |  | 
COc1ccc2c(c1)N(C(=O)c1sc3ccccc3c1Cl)C(C)(C)c1ssc(=S)c1-2 [2l, 5-[(3-Chloro-1-benzothien-2-yl)carbonyl]-7-methoxy-4,4-dimethyl-4,5-dihydro-1H-[1,2]dithiolo[3,4-c]quinoline-1-thione] | 67 | 75 | 24 | 81 | 53 | 86 | 218 to 219 |  |  |  | 
CN1c2ccc(C(=S)N3CCN(c4ccccc4)CC3)cc2-c2c(ssc2=S)C1(C)C [2b, 4,4,5-Trimethyl-8-[(4-phenylpiperazin-1-yl)carbonothioyl]-4,5-dihydro-1H-[1,2]dithiolo[3,4-c]quinoline-1-thione] | 90 | 86 | 84 | 92 | 83 | 95 |  | 250 | 380 |  | 
CC1(C)c2ssc(=S)c2-c2cc(C(=S)N3CCOCC3)ccc2N1Cc1ccccc1 [2c, 5-Benzyl-4,4-dimethyl-8-(morpholin-4-ylcarbonothioyl)-4,5-dihydro-1H-[1,2]dithiolo[3,4-c]quinoline-1-thione] | 75 | 77 | 88 | 93 | 76 | 95 |  |  | 410 | 780 | 
CC1(C)c2ssc(=S)c2-c2cc(C(=S)N3CCCCC3)ccc2N1Cc1ccccc1 [2d, 5-Benzyl-4,4-dimethyl-8-(piperidin-1-ylcarbonothioyl)-4,5-dihydro-1H-[1,2]dithiolo[3,4-c]quinoline-1-thione] | 41 | 39 | 12 | 61 | 33 | 69 |  |  |  |  | 
COc1cccc(N=c2ssc3c2-c2cccc4c2N(C(=O)C4=O)C3(C)C)c1 [2q, 10-[(3-Methoxyphenyl)imino]-7,7-dimethyl-7,10-dihydro[1,2]dithiolo[3,4-c]pyrrolo[3,2,1-ij]quinoline-4,5-dione] | 36 | 51 | 71 | 92 | 9 | 99 | 195 to 196 |  | 460 | 5340 | 
COc1ccc2c(c1)-c1c(ssc1=S)C(C)(C)N2C(=O)CN1C(=O)C2CCCCC2C1=O (stereo not shown) [2k, 2-[2-(8-Methoxy-4,4-dimethyl-1-thioxo-1,4-dihydro-5H-[1,2]dithiolo[3,4-c]quinolin-5-yl)-2-oxoethyl]hexahydro-1H-isoindole-1,3(2H)-dione] | 27 | 18 | -2 | 41 | 3 | 26 | 205 to 206 |  |  |  | very low activity
COc1ccc2c(c1)-c1c(ssc1=S)C(C)(C)N2C(=O)CN1C(=O)CCC1=O [2j, 1-[2-(8-Methoxy-4,4-dimethyl-1-thioxo-1,4-dihydro-5H-[1,2]dithiolo[3,4-c]quinolin-5-yl)-2-oxoethyl]pyrrolidine-2,5-dione] | 56 | 7 | 9 | 5 | 11 | 39 | 201 to 202 |  |  |  | 
CC1(C)c2ssc(=S)c2-c2cc3c(cc2N1C(=O)c1ccccc1F)OCCO3 [2m, 5-(2-Fluorobenzoyl)-4,4-dimethyl-4,5,8,9-tetrahydro-1H-[1,4]dioxino[2,3-g][1,2]dithiolo[3,4-c]quinoline-1-thione] | 6 | -4 | 10 | 35 | 1 | 23 | 234 to 235 |  |  |  | very low activity
CC1(C)Nc2cc3c(cc2-c2c1ssc2=S)OCCO3 [2h, 4,4-dimethyl-4,5,8,9-tetrahydro-1H-[1,4]dioxino[2,3-g][1,2]dithiolo[3,4-c]quinoline-1-thione] | 42 | 49 | 27 | 44 | 10 | 36 | 238 to 239 |  |  |  | 
CN1c2ccc(C(=S)N3CCOCC3)cc2-c2c(ssc2=S)C1(C)C [2a, 4,4,5-Trimethyl-8-(morpholin-4-ylcarbonothioyl)-4,5-dihydro-1H-[1,2]dithiolo[3,4-c]quinoline-1-thione] | 87 | 84 | 82 | 93 | 81 | 96 | 106 to 107 | 540 | 360 | 6570 | 
